Experimental data as given in patent US20180369111A1, “COMPOSITION COMPRISING BAICALIN AT A HIGH CONCENTRATION” (L'OREAL, priority 2015, published 2018).

Experiment: Solubility and chemical stability of baicalin in aqueous medium as a function of pH
Format: physicochemical
Description: Baicalin is a polyphenol displaying an antioxidant activity. There is thus a need, for consumers, to provide cosmetic compositions comprising baicalin, or an extract containing same, at a high concentration and having a greater antioxidant efficacy than the cosmetic compositions known in the prior art comprising baicalin. However, the solubility of baicalin is very low in aqueous medium. It is therefore very difficult to incorporate in a composition, in particular a cosmetic composition, at a high mass concentration, in particular at a mass concentration greater than 0.2%. At a mass concentration greater than 0.2%, the appearance of the presence of crystallized baicalin is observed. The present inventors have identified that the solubility of baicalin was increased with the pH.
In particular, the method implemented to incorporate baicalin, or an extract containing same, at a high mass concentration, i.e. for example greater than 0.5% in the aqueous phase of a composition consists, in a first transitory step, of completely dissolving the baicalin in aqueous phase in a basic medium using a base to raise the pH to a value greater than 6. Under these conditions, it is possible to prepare aqueous solutions comprising up to 10% baicalin as a mass concentration, without using hydrotropic agents.
Baicalin is presented in the form of a yellow powder, having a purity optionally greater than 90 or 95%. Baicalin crystals may be presented in the form of needles.

In the case of `O=C(O)[C@H]1O[C@@H](Oc2cc3oc(-c4ccccc4)cc(=O)c3c(O)c2O)[C@H](O)[C@@H](O)[C@@H]1O` [Baicalin], the “baicalin mass concentration attainable in aqueous solution” value is reported as “up to 10%”, the “chemical stability of baicalin” value (at a pH greater than 6) is reported as “chemically unstable and is degraded” and the “mass concentration above which crystallized baicalin appears” value (in a composition, mass concentration) is reported as “greater than 0.2%”.
